Measured values: patent US7741244B2, “Fungicide compositions” (priority 2002, dated 2010)

Columns and labels:
Botrytis cinerea [1] = assay: Inhibition of fungal infections on fresh raspberries (Example 9); assay type: in vivo; details: raspberries (Heritage), 60 s dip
Botrytis cinerea [2] = assay: PDA plate inhibition, caprylic acid and organic acids (Example 13); assay type: cell-based; details: PDA plates
White mold = assay: as above; assay type: cell-based; details: PDA plates
Septoria = details: PDA plates, control plate = 100%
Late blight = assay type: cell-based; details: PDA plates; day 2 after inoculum; control plate = 100%

O=C(O)C(O)C(O)C(=O)O (stereo not shown) [0.75% tartaric acid, tartaric acid]
Infected berries (% of total) Day 2 (Botrytis cinerea [1]; day 2): 31%
Infected berries (% of total) Day 3 (Botrytis cinerea [1]; day 3): 58%
Infected berries (% of total) Day 4 (Botrytis cinerea [1]; day 4): 86%
Infected berries (% of total) Day 6 (Botrytis cinerea [1]; day 6): 92%
Infected berries (% of total) Day 8 (Botrytis cinerea [1]; day 8): 92%
Infected berries (% of total) Day 10 (Botrytis cinerea [1]; day 10): 92%
Infected berries (% of total) Day 12 (Botrytis cinerea [1]; day 12): 92%

O=C(O)CCC(=O)O [0.010% succinic acid, succinic acid]
Inhibition (%) of Botrytis cinerea (Botrytis cinerea [2]): 0%
Inhibition (%) of white mold (White mold): 0%

O=C(O)CO [glycolic acid]
Measurement of fungal growth, Septoria Day 2 (Septoria; day 2 after inoculum): 80%
Measurement of fungal growth, Septoria Day 3 (Septoria; day 3 after inoculum): 90%
Measurement of fungal growth, Late blight Day 2 (Late blight): 79%
Inhibition (%) of Botrytis cinerea (Botrytis cinerea [2]): 0%
Inhibition (%) of white mold (White mold): 0%

O=C(O)CC(O)(CC(=O)O)C(=O)O [0.010% citric acid, citric acid]
Inhibition (%) of Botrytis cinerea (Botrytis cinerea [2]): 0%
Inhibition (%) of white mold (White mold): 0%
